Laboratory results published in ChEMBL document CHEMBL1152144, “In situ blood-brain barrier permeability of a C-10 paclitaxel carbamate” (Bioorg Med Chem Lett, 2008).

Test system: Brain
Assay: Blood-brain barrier permeability in B6C3 mouse brain assessed as increase in drug level at 0.1 uCi, iv relative to [14C]paclitaxel
Type: ADME, organism-based
Details: in vivo

Row | fold change (FC) | SMILES
1 | 6 | CC(=O)O[C@@]12CO[C@@H]1C[C@H](O)[C@@]1(C)C(=O)[C@H](OC(=O)CCC(=O)O)C3=C(C)[C@@H](OC(=O)[C@H](O)[C@@H](NC(=O)c4ccccc4)c4ccccc4)C[C@@](O)([C@@H](OC(=O)c4ccccc4)[C@H]21)C3(C)C
2 | 3 | CC(=O)O[C@@]12CO[C@@H]1C[C@H](O)[C@@]1(C)C(=O)[C@H](OC(=O)N[14CH2][14CH2]O)C3=C(C)[C@@H](OC(=O)[C@H](O)[C@@H](NC(=O)c4ccccc4)c4ccccc4)C[C@@](O)([C@@H](OC(=O)c4ccccc4)[C@H]21)C3(C)C
